Data from ChEMBL document CHEMBL1772964, “Structural requirements of flavonoids for the adipogenesis of 3T3-L1 cells” (Bioorg Med Chem, 2011).

Experiments:
3T3-L1 [1] = experiment: Effect on C/EBPdelta mRNA expression in mouse 3T3L1 cells at 3 uM on day 8 by RT-PCR relative to beta-actin mRNA expression; format: functional
3T3-L1 [2] = experiment: Effect on C/EBPdelta mRNA expression in mouse 3T3L1 cells at 10 uM on day 8 by RT-PCR relative to beta-actin mRNA expression; format: functional
3T3-L1 [3] = experiment: Effect on C/EBPdelta mRNA expression in mouse 3T3L1 adipocytes at 30 uM on day 8 by RT-PCR relative to beta-actin mRNA expression; format: functional
3T3-L1 [4] = experiment: Induction of insulin-stimulated 2-deoxy-D- 2,6-[3H]-glucose uptake in mouse 3T3L1 cells chronically treated at 10 uM by liquid scintillation counting (reference value: 100.0 %); format: functional
3T3-L1 [5] = experiment: Induction of insulin-stimulated 2-deoxy-D- 2,6-[3H]-glucose uptake in mouse 3T3L1 cells chronically treated at 30 uM by liquid scintillation counting (reference value: 100.0 %); format: functional
3T3-L1 [6] = experiment: Induction of insulin-stimulated 2-deoxy-D- 2,6-[3H]-glucose uptake in differentiated mouse 3T3L1 cells at 10 uM compound treated for 20 mins with insulin by liquid scintillation counting (reference value: 100.0 %); format: functional
3T3-L1 [7] = experiment: Induction of insulin-stimulated 2-deoxy-D- 2,6-[3H]-glucose uptake in differentiated mouse 3T3L1 cells at 30 uM compound treated for 20 mins with insulin by liquid scintillation counting (reference value: 100.0 %); format: functional
3T3-L1 [8] = experiment: Effect on adiponectin mRNA expression in mouse 3T3L1 cells at 3 uM on day 8 by RT-PCR relative to beta-actin mRNA expression; format: functional
3T3-L1 [9] = experiment: Effect on adiponectin mRNA expression in mouse 3T3L1 cells at 30 uM on day 8 by RT-PCR relative to beta-actin mRNA expression; format: functional
3T3-L1 [10] = experiment: Effect on adiponectin mRNA expression in mouse 3T3L1 cells at 10 uM on day 8 by RT-PCR relative to beta-actin mRNA expression; format: functional
3T3-L1 [11] = experiment: Effect on PPARgamma2 mRNA expression in mouse 3T3L1 cells at 3 uM on day 8 by RT-PCR relative to beta-actin mRNA expression; format: functional
3T3-L1 [12] = experiment: Effect on PPARgamma2 mRNA expression in mouse 3T3L1 cells at 10 uM on day 8 by RT-PCR relative to beta-actin mRNA expression; format: functional
3T3-L1 [13] = experiment: Effect on PPARgamma2 mRNA expression in mouse 3T3L1 cells at 30 uM on day 8 by RT-PCR relative to beta-actin mRNA expression; format: functional
3T3-L1 [14] = experiment: Effect on GlUT4 mRNA expression in mouse 3T3L1 cells at 3 uM on day 8 by RT-PCR relative to beta-actin mRNA expression; format: functional
3T3-L1 [15] = experiment: Effect on GlUT4 mRNA expression in mouse 3T3L1 cells at 10 uM on day 8 by RT-PCR relative to beta-actin mRNA expression; format: functional
3T3-L1 [16] = experiment: Effect on GlUT4 mRNA expression in mouse 3T3L1 cells at 30 uM on day 8 by RT-PCR relative to beta-actin mRNA expression; format: functional
3T3-L1 [17] = experiment: Effect on aP2 mRNA expression in mouse 3T3L1 cells at 3 uM on day 8 by RT-PCR relative to beta-actin mRNA expression; format: functional
3T3-L1 [18] = experiment: Effect on aP2 mRNA expression in mouse 3T3L1 cells at 10 uM on day 8 by RT-PCR relative to beta-actin mRNA expression; format: functional
3T3-L1 [19] = experiment: Effect on aP2 mRNA expression in mouse 3T3L1 cells at 30 uM on day 8 by RT-PCR relative to beta-actin mRNA expression; format: functional
3T3-L1 [20] = experiment: Effect on C/EBPalpha mRNA expression in mouse 3T3L1 cells at 3 uM on day 8 by RT-PCR relative to beta-actin mRNA expression; format: functional
3T3-L1 [21] = experiment: Effect on C/EBPalpha mRNA expression in mouse 3T3L1 cells at 10 uM on day 8 by RT-PCR relative to beta-actin mRNA expression; format: functional
3T3-L1 [22] = experiment: Effect on C/EBPalpha mRNA expression in mouse 3T3L1 cells at 30 uM on day 8 by RT-PCR relative to beta-actin mRNA expression; format: functional
3T3-L1 [23] = experiment: Effect on C/EBPbeta mRNA expression in mouse 3T3L1 cells at 3 uM on day 8 by RT-PCR relative to beta-actin mRNA expression; format: functional
3T3-L1 [24] = experiment: Effect on C/EBPbeta mRNA expression in mouse 3T3L1 cells at 10 uM on day 8 by RT-PCR relative to beta-actin mRNA expression; format: functional
3T3-L1 [25] = experiment: Effect on C/EBPbeta mRNA expression in mouse 3T3L1 cells at 30 uM on day 8 by RT-PCR relative to beta-actin mRNA expression; format: functional
3T3-L1 [26] = experiment: Induction of adipogenesis in mouse 3T3L1 cells assessed as increase in triglyceride level on day 8; format: functional, cell-based
3T3-L1 [27] = experiment: Induction of adipogenesis in mouse 3T3L1 cells assessed as increase in triglyceride level at 0.3 uM on day 8 relative to control; format: functional
3T3-L1 [28] = experiment: Induction of adipogenesis in mouse 3T3L1 cells assessed as increase in triglyceride level at 1 uM on day 8 relative to control; format: functional
3T3-L1 [29] = experiment: Induction of adipogenesis in mouse 3T3L1 cells assessed as increase in triglyceride level at 3 uM on day 8 relative to control; format: functional
3T3-L1 [30] = experiment: Induction of adipogenesis in mouse 3T3L1 cells assessed as increase in triglyceride level at 10 uM on day 8 relative to control; format: functional
3T3-L1 [31] = experiment: Induction of adipogenesis in mouse 3T3L1 cells assessed as increase in triglyceride level at 30 uM on day 8 relative to control; format: functional
3T3-L1 [32] = experiment: Induction of adiponectin protein secretion in mouse 3T3L1 cells at 1 uM on day 8 by ELISA relative to control; format: functional
3T3-L1 [33] = experiment: Induction of adiponectin protein secretion in mouse 3T3L1 cells at 3 uM on day 8 by ELISA relative to control; format: functional
3T3-L1 [34] = experiment: Induction of adiponectin protein secretion in mouse 3T3L1 cells at 10 uM on day 8 by ELISA relative to control; format: functional
3T3-L1 [35] = experiment: Induction of adiponectin protein secretion in mouse 3T3L1 cells at 30 uM on day 8 by ELISA relative to control; format: functional
3T3-L1 [36] = experiment: Induction of insulin-stimulated 2-deoxy-D- 2,6-[3H]-glucose uptake in mouse 3T3L1 cells chronically treated at 1 uM by liquid scintillation counting (reference value: 100.0 %); format: functional
3T3-L1 [37] = experiment: Inhibition of insulin-stimulated 2-deoxy-D- 2,6-[3H]-glucose uptake in differentiated mouse 3T3L1 cells compound treated for 20 mins with insulin by liquid scintillation counting (reference value: 100.0 %); format: functional, cell-based

Compound | Ratio (3T3-L1 [1]) | Ratio (3T3-L1 [2]) | Ratio (3T3-L1 [3]) | Activity (3T3-L1 [4]) [%] | Activity (3T3-L1 [5]) [%] | Activity (3T3-L1 [6]) [%] | Activity (3T3-L1 [7]) [%] | Ratio (3T3-L1 [8]) | Ratio (3T3-L1 [9]) | Activity (3T3-L1 [26]) | Activity (3T3-L1 [27]) [%] | Activity (3T3-L1 [28]) [%] | Activity (3T3-L1 [29]) [%] | Activity (3T3-L1 [30]) [%] | Activity (3T3-L1 [31]) [%] | Activity (3T3-L1 [32]) [%] | Activity (3T3-L1 [33]) [%] | Activity (3T3-L1 [34]) [%] | Activity (3T3-L1 [35]) [%] | Activity (3T3-L1 [36]) [%] | also measured
COc1cc(OC)c2c(=O)c(OC)c(-c3ccc(OC)c(OC)c3)oc2c1 | 1.54 | 1.93 | 2.34 | 152.9 | 127.3 | 65.5 | 35.9 | 1.67 | 2.59 | Dose-dependent effect | 9.4 | 17.7 | 26.2 | 27 | 27.4 | 137.8 | 156.8 | 131.4 | 128.1 | 129.9 | Ratio (3T3-L1 [10]): 1.91; Ratio (3T3-L1 [11]): 1.84; Ratio (3T3-L1 [12]): 1.99; Ratio (3T3-L1 [13]): 2.42; Ratio (3T3-L1 [14]): 2.01; Ratio (3T3-L1 [15]): 2.25; Ratio (3T3-L1 [16]): 3.62; Ratio (3T3-L1 [17]): 1.34; Ratio (3T3-L1 [18]): 1.59; Ratio (3T3-L1 [19]): 2.1; Ratio (3T3-L1 [20]): 1.79; Ratio (3T3-L1 [21]): 1.5; Ratio (3T3-L1 [22]): 1.38; Ratio (3T3-L1 [23]): 1.73; Ratio (3T3-L1 [24]): 3.01; Ratio (3T3-L1 [25]): 3.82
COc1ccc(-c2oc3cc(OC)cc(O)c3c(=O)c2OC)cc1 | – | – | – | 118.9 | 113.6 | 69.8 | 60.1 | – | – | Dose-dependent effect | 9.3 | 21.7 | 20.8 | 22.5 | 23 | 119.7 | 125.3 | 123.3 | 131.9 | 108.5 | –
O=c1c(O)c(-c2ccc(O)cc2)oc2cc(O)cc(O)c12 [KAEMPFEROL] | – | – | – | – | – | 30.3 | 12.7 | – | – | – | – | 6.2 | 5.9 | 0.3 | 3.7 | – | – | – | – | – | inhibition (3T3-L1 [37]): Dose-dependent effect
COc1ccc(-c2oc3cc(OC)cc(OC)c3c(=O)c2OC)cc1 [TETRAMETHYLKAEMPFEROL] | 0.89 | 1.23 | 0.77 | 163.1 | 135.8 | 62.7 | 46 | 1.81 | 2.9 | Dose-dependent effect | 10.1 | 19.1 | 24.1 | 28.2 | 33.7 | 144.6 | 149.5 | 164.7 | 136.7 | 146.5 | Ratio (3T3-L1 [10]): 2.05; Ratio (3T3-L1 [11]): 1.67; Ratio (3T3-L1 [12]): 1.81; Ratio (3T3-L1 [13]): 2.11; Ratio (3T3-L1 [14]): 2.38; Ratio (3T3-L1 [15]): 2.54; Ratio (3T3-L1 [16]): 2.61; Ratio (3T3-L1 [17]): 1.53; Ratio (3T3-L1 [18]): 2.02; Ratio (3T3-L1 [19]): 2.24; Ratio (3T3-L1 [20]): 1.88; Ratio (3T3-L1 [21]): 2.08; Ratio (3T3-L1 [22]): 1.82; Ratio (3T3-L1 [23]): 1.34; Ratio (3T3-L1 [24]): 1.89; Ratio (3T3-L1 [25]): 3.14
